In patent US20260125359A1, “HETEROARYL COMPOUNDS AS MULTI-TARGET PROTEIN KINASE INHIBITORS” (FUJIAN HAIXI PHARMACEUTICALS CO., LTD., priority 2023, published 2026):

Experiments:
[1] = target: KIT (Homo sapiens, UniProt P10721); assay: KIT in vitro kinase activity assay (HTRF kinEASE TK); assay type: biochemical; conditions: for inhibition at 0.01 µM: compound 10 nM, read-out: KIT inhibition rate, 10 nM; for inhibition at 0.1 µM: compound 100 nM, read-out: KIT inhibition rate, 100 nM
Excerpt: (§1) CSF-1R, PDGFR-α, KDR (VEGFR2) and KIT in vitro Kinase Activity Assay:
(§2) • ENVISION (Perkinelmer, 2104) • White 384-well MicroPlate (Cat #264706, Nunc) • HTRF kinEASE TK kit main reagents (Cat #62TKOPEC, Cisbio) • TK-biotin substrate • Streptavidin-XL665 • TK Antibody-Cryptate • 5× Enzymatic buffer (5×KB) • Staphylococcal enterotoxin B (SEB) • HTRF Detection buffer • CSF-1R (Cat #PV3249, Invitrogen) • PDGFR-α (Cat #PV3811, Invitrogen) • KDR (Cat #PV3660, Invitrogen) • KIT (Cat #08-156, Carna) • ATP 10 mM (Cat #PV3227, Invitrogen) • DTT 1 M (Cat #D5545, Sigma) • MgCl2 1 M (Cat #M8266, Sigma) • MnCl2 1 M (Cat #244589, Sigma)
(§3) Dilute Substrate-TK and ATP to 5× of the reaction concentration using 1× Kinase Buffer.
(§4) Prepare the 5× enzyme working solution using 1× Kinase Buffer.
(§5) Prepare the 4×Sa-XL665 working solution using Detection Buffer.
(§6) Dilute TK-Ab-Cryptate 100 times using Detection Buffer to prepare the working solution.
(§7) After all reagents were prepared according to the methods described above, except for the enzyme, they were equilibrated to room temperature before starting the sample addition. • a) First, 2.5% DMSO solutions were prepared separately using the pre-prepared 1× kinase buffer (DMSO concentrations that were too high could affect the reaction, so the final concentration of DMSO was controlled at 1%). Then, the corresponding 2.5% DMSO solution for the enzyme was used to dilute the test compounds. Compounds were screened with two concentrations of 100 nM and 10 nM. Except for the control wells, 4 μL of the diluted test compound solution was added to the reaction wells, and 4 μL of the pre-prepared 2.5% DMSO solution was added to the control wells. • b) 2 μL of the pre-prepared TK-biotin substrate solution at the corresponding concentration for the kinase was added to all reaction wells. • c) 2 μL of the pre-prepared enzyme solution at the corresponding concentration was added to all reaction wells except the negative control wells. For the negative control wells, 2 μL of 1× kinase buffer corresponding to the enzyme was added to make up the volume. The plate was sealed with sealing film, mixed gently, and incubated at room temperature for 10 min to allow the compounds to fully interact with the enzyme. • d) 2 μL of the ATP solution at the corresponding concentration for the enzyme was added to all reaction wells to initiate the kinase reaction. ATP concentrations and reaction times for enzyme screening are shown in Table 26 • e) Five minutes before the end of the kinase reaction, the detection solution was prepared. The detection buffer from the kit was used to prepare detection solutions for Streptavidin-XL665 and TK antibody europium cryptate (1:100) at the appropriate concentrations for the two enzymes. • f) After the kinase reaction was completed, 5 μL of the diluted Streptavidin-XL665 solution was added to all reaction wells. After mixing, the diluted TK antibody europium cryptate detection solution was immediately added. • g) The plate was sealed and mixed, incubated at room temperature for 1 hour, and the fluorescence signal was detected using the ENVISION (PerkinElmer) instrument (excitation at 320 nm, emission at 665 nm and 615 nm). The inhibition rate for each well was calculated based on the full-activity control wells and background signal wells, and the average value of the replicates was taken.

[2] = target: PDGFR-α (Homo sapiens, UniProt P16234); assay: PDGFR-α in vitro kinase activity assay (HTRF kinEASE TK); assay type: biochemical; conditions: for inhibition at 0.01 µM: compound 10 nM, read-out: PDGFRα inhibition rate, 10 nM; for inhibition at 0.1 µM: compound 100 nM, read-out: PDGFRα inhibition rate, 100 nM
Excerpt: as §1, §2, §3, §4, §5, §6, §7

PDGFR-α, sequence (P16234 24-1089): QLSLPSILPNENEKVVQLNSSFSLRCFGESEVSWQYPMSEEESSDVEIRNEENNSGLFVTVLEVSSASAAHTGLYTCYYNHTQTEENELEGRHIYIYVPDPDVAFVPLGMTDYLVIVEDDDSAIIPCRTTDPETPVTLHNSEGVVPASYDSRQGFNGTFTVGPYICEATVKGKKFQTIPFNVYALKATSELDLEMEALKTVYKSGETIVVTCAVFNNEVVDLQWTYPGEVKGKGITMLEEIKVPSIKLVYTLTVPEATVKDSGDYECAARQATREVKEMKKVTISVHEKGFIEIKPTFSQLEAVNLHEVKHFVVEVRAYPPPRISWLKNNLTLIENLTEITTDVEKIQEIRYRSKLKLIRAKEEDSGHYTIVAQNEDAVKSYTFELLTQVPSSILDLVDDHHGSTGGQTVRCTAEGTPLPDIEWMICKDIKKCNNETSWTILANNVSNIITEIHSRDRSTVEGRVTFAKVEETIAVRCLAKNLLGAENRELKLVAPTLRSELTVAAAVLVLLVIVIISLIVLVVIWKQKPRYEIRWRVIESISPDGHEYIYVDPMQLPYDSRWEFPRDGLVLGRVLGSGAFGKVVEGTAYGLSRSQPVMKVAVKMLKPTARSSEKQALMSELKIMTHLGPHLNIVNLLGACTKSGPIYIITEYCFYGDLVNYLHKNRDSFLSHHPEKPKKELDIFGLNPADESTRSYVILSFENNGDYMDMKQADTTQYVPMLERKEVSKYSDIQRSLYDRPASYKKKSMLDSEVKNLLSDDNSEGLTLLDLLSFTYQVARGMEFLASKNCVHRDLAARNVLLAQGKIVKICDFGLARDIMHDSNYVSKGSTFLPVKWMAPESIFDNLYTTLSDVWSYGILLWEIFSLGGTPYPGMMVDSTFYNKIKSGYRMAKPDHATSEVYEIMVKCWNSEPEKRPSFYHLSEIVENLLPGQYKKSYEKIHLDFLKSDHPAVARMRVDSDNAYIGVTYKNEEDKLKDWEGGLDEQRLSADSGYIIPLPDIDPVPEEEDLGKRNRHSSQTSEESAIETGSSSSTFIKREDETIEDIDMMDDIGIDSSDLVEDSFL
KIT, sequence (P10721 26-976): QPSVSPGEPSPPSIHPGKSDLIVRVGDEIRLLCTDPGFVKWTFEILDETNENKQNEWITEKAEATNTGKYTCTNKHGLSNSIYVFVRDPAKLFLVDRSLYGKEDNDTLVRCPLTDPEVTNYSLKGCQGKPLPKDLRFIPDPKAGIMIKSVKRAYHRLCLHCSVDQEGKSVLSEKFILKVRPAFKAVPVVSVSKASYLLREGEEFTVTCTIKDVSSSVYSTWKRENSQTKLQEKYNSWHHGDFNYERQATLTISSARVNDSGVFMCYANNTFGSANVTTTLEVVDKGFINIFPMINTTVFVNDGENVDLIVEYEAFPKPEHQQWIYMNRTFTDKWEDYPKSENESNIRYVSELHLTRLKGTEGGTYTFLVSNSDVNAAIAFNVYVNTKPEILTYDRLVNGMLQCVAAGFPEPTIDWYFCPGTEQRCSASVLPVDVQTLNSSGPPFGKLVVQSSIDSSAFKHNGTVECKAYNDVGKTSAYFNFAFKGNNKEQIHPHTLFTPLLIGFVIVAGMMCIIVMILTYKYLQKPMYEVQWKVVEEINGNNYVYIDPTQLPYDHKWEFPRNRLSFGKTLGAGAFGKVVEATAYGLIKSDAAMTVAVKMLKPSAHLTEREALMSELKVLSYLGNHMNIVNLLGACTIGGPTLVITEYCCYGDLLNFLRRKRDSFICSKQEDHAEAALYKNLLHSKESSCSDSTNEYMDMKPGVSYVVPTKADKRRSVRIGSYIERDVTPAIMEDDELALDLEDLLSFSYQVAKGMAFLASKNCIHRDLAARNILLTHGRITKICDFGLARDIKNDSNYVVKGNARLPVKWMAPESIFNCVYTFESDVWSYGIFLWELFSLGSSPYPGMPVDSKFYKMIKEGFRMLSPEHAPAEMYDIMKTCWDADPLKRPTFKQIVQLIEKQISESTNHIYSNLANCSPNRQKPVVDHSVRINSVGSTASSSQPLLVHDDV

inhibition at 0.01 µM [1] [%]	inhibition at 0.1 µM [1] [%]	inhibition at 0.01 µM [2] [%]	inhibition at 0.1 µM [2] [%]	SMILES
11.2	80.2	22.9	97.1	Cn1cc(-c2cncc(O[C@H]3CCc4c(C(=O)Nc5cccc(C6CC6)c5)cccc43)c2)cn1 [Compound 19b]
12.6	54	13.7	53.1	Cn1ncc2ncc(O[C@H]3CCc4c(C(=O)Nc5cncc(Cl)c5)cccc43)cc21 [Compound 76ac, (S)—N-(5-chloropyridin-3-yl)-1-((1-methyl-1H-pyrazolo[4,3-b]pyridin-6-yl)oxy)-2,3-dihydro-1H-indene-4-carboxamide]
5.8	27.2	62.9	60.5	CN(c1cncc(-c2cnn(C)c2)c1)[C@H]1CCc2c(C(=O)Nc3cccc(C4CC4)c3)cccc21 [Compound 22a, (S)—N-(3-cyclopropylphenyl)-1-(methyl (5-(1-methyl-1H-pyrazol-4-yl)pyridin-3-yl)amino)-2,3-dihydro-1H-indene-4-carboxamide]
22	47.8	19	51.2	CN(c1cnc2cn(C)nc2c1)[C@H]1CCc2c(C(=O)Nc3cncc(Cl)c3)cccc21 [Compound 80k]
7.5	66.4	55.5	100	Cn1cc(-c2cncc(N[C@H]3CCc4c(Nc5cc(C(C)(C)C)on5)cccc43)c2)cn1 [Compound 41, (S)—N^4-(5-(tert-butyl)isoxazol-3-yl)-N^1-(5-(1-methyl-1H-pyrazol-4-yl)pyridin-3-yl)-2,3-dihydro-1H-indene-1,4-diamine]
